Like-named read-outs stand apart in the source and are kept apart here.
Experiments:
[1] = molecular target: SK2 channel (Homo sapiens, UniProt Q9H2S1); conditions: patch clamp; cited from earlier work
[2] = molecular target: T1, Shaker channel plus H-kvβ A subunit (Drosophila melanogaster, UniProt P08510, INS512V); assay type: cell-based
T1 construct: expressed in transfected cells; host or cells: CHO-K1
Protocol: In order to detect the membrane depolarization elicited by KCl injection, the Membrane Potential sensitive dye was used both for FLIPR384 and […] experiments. Cells were analyzed in 384 clear-bottom black MPTs (MATRIX cat. #4324) by seeding 5000, 7500, 10000 cells/well 24 hrs before experiment. Plates were incubated with 40 μl/w of 0.625× membrane potential dye for 45-60 minutes at 37° C. or room temperature and measured at FLIPR instrument by injecting 10 μl/w of 5× antagonist (in the presence of 0.5% DMSO, as indicated) followed by 3-5 minutes fluorescence reading; then a second injection of 25 μl/w of 3× KCl in Standard Tyrode solution) was performed and fluorescence measured for further 3-4 minutes. In experiments with a single injection (agonist), plates were incubated with 20 μl/w of 1× dye and injected with 20 μl/w of 2× KCl in Standard Tyrode solution.
Kinetic data obtained from different well replicates were analyzed with FLIPR, Excel and Spotfire software, by calculating the Integral or Maximum-Minimum RFU values after the injection; the obtained means and standard deviations were utilized to create sigmoidal dose-response fits by GraphPad PRISM® or Spotfire software and to calculate EC50-IC50 values and Z′ factors.
FIG. 42. […]

[3] = molecular target: T2, octopamine receptor (OctR, CG6919 dmOa2) (Drosophila melanogaster, UniProt Q9VCZ3); assay: OctR clone 55 FLIPR Fluo-4 calcium assay; assay type: cell-based; conditions: clone 55, same as published cAMP data
T2 construct: expressed in transfected cells; host or cells: CHO stably expressing G-alpha-16
Protocol: FIG. 62. Cells were plated at 10K/well in 384 well plates and allowed to incubate overnight at […]. The cells were assayed 18-24 hours after seeding. Media was removed and cells were dye loaded for 60 minutes with 2 μM Fluo-4. After 1 hour, dye was removed and 20 μl of buffer added to the plate and placed into FLIPR. The 1st addition was antagonist dose response curves and the 2nd addition was agonist dose response curves. Antagonists were challenged with 100 nM Octopamine. In addition, these compounds were tested in the parental cell line CHO-Galpha16.
Cells were plated at 10,000 cells/well in 50 μl into 384-well black TC plates and allowed to incubate overnight at 37° C./5% CO2. The cells were assayed 18-24 hours after seeding. Culture medium was removed by flicking and cells were dye loaded for 60 minutes with 20 μl of 2 μM Fluo-4 in assay buffer plus probenecid at 25° C. After one hour dye was removed by flicking and 20 μL of assay buffer was added, wait 5 min prior to placing into the FLIPR and run using a two-addition protocol. The first addition (20 ul, 2×) was 0.5% DMSO final in assay buffer. The second addition (20 ul, 3×) was either assay buffer or 100 nM octopamine final.

[4] = molecular target: T3, ShaI_delN (Drosophila melanogaster, UniProt P17971); assay: ShaI_delN clonal lines, FLIPR blue membrane potential dye, KCl depolarization; assay type: cell-based; conditions: both the ShaI_delN clonal lines and the control pcDNA3 cell line, FLIPR
T3 construct: expressed in transfected cells; host or cells: CHO
Protocol: ShaI_DelN C10 and C15 were tested for function on the FLIPR using the Molecular Devices blue membrane potential dye. The cells were seeded at 60K cells/well in 96-well Costar plates in complete media and assayed for function at 24 hrs. Depolarization with 15-60 mM KCl caused a 2-2.8 fold higher activity in the clonal line than the pcDNA control cell line (FIG. 5). Clone 10 had slightly higher activity than clone 15.
FIG. 5: ShaI_DelN clones tested on FLIPR with KCl depolarization. We also tested some known K-channel blockers on channel activity on the FLIPR (FIG. 6). […] The ShaI_delN clonal cell lines lost their GFP expression and assay window with cell passage. At passage 12, only 10-15% of the cell population was GFP positive.
The effects of barium (Ba2+) on ShaI_delN function were tested. Barium is known to inhibit some open rectifier and inward rectifier K-channel activities. Cells were dye loaded in the presence of BaCl2 for 1 hr at RT and assayed on the FLIPR using KCl depolarization for channel activation.

[5] = molecular target: T4, ShaI/KChIP (Drosophila melanogaster, UniProt P17971); assay: ShaI/KChIP FLIPR membrane potential assay, KCl depolarization; assay type: cell-based
T4 construct: expressed in transfected cells; subclone 18-13-20
T4 sequence (P17971 with tags, fused parts or gaps isoform P17971-1): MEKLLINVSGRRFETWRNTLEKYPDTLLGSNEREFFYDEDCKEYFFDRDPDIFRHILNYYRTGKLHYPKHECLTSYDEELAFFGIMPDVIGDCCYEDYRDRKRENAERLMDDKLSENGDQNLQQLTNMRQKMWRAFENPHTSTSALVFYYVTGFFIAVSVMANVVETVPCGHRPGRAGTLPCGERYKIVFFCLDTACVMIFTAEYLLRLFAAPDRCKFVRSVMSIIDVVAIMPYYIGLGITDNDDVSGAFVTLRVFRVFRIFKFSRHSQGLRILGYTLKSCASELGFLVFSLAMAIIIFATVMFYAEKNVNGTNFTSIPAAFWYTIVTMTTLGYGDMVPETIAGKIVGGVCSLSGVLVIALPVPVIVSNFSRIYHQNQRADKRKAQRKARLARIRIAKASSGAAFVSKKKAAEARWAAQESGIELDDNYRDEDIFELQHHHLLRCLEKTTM
Protocol: This assay uses two fluid additions to permit the detection of activators and antagonists in a single experiment (FIG. 17). In screening, test compounds are added in the first addition and allowed to incubate for three minutes. An activating dose of KCl is then introduced in the second addition and the fluorescence read for an additional three minutes. Controls are run for both additions.
Cells were dispensed in a 50 μl volume containing 7,500 cells into 384-well TC clear/black assay plates (Greiner 781091) using a Multidrop 384 dispenser, incubated at ambient temperature for one hour (to reduce edge effects), and incubated overnight at 37° C./5% CO2. The cells were assayed 18-24 hours after seeding, at which point they were just approaching confluency in the wells. Culture medium was removed by flicking and tapping it out of the plate, and cells were loaded with 20 ul/well of 1× blue membrane potential dye in assay buffer for 30 minutes at 25° C. After 30 minutes the assay plate was placed into the FLIPR and run using a two-addition protocol. The first addition (5×, 5 ul) contained 2.5% DMSO in assay buffer. The pipetting height was set at 15 and the speed 20. The plate was read for three minutes after this addition. The second addition (2×, 25 ul) was either assay buffer or 120 mM isometrically-substituted KCl (i.e., KCl substituted for NaCl on a 1:1 molar basis). The height was 20 and the speed 25. Aspirate speeds were set at the lowest values and no hold or expel volumes applied. The plate was read for an additional three minutes after the second addition. The exported statistics were typically configured as stat1=average of 190-200 (the interval just before the first addition) and stat2=maximum of 260-maximum allowed. Subtract bias was set at 1 and negative control correction was OFF. Z′ statistics (an index of “screenability”, Z′>0.5=single-pass screen) were calculated using the following formula: Z′=1−((3σmax+3σmin)/(Iμmax−μminI)).
FIG. 32: BIOMOL compounds—primary screening data. ScreenWorks screenshots showing primary FLIPR data for BIOMOL compound screening. ShaI/KChIP 20 cells were plated at 7500 cells/well in 384-well assay plates and screened the following day. Culture medium was removed by flicking the plates and the cells were loaded with 20 ul 1× membrane potential dye per well for 0.5 hours at 25° C. A two-addition protocol was used. The first addition was 5 ul 5× control or compound in 2.5% DMSO in assay buffer (0.5% [final]) read for 180 sec, and the second addition was 25 ul 2× control or 120 mM isometrically-substituted KCl in assay buffer (0-60 mM [final]) read for an additional 180 sec. Statistics were exported using the average of reads 180-200 and the maximum of reads 260-maximum allowed. Subtract bias was set at 1 and negative control correction was OFF. Control columns ½ and 23/24 are described starting on pg. 53 of this document. Inset: Screenshot of group averages for the control and compound wells highlighted in the primary data screen.
The 3222 unique members of the BioFocus SoftFocus Ion Channel Libraries #1-4 (#SF101-04) were screened in 384-well four-point mode against ShaI/KChIP at 10 uM in a combined activator and antagonist screen. The same FLIPR protocol was used as for the BIOMOL screening and was carried out over four non-consecutive days. The following compound preparation protocol was used to prepare screening plates: Briefly, ShaI-KChIP cells were seeded in 384-well plates at 7500 cells/well in 50 ul and incubated overnight at 37° C./5% CO2. The next day, culture medium was removed, 20 ul of 1×FMP dye was added, and the cell plate was incubated at 27° C. for 30 minutes. After incubation, the cell plate was placed into the Tetra and a two-addition protocol was used. The 1st addition was 5 μl of 5× compound (50 μM) with a three minute read. […] The 2nd addition was 25 ul of 2× activation buffer (120 mM isometric KCl substitution for NaCl) and read for an additional two minutes. […]

NC(=O)N1c2ccccc2C=Cc2ccccc21 [carbamazepine]
block of SK2 channel currents [1]: micro-molar affinity

CC[N+](CC)(CC)CC [TEA, Tetraethylammonium]
effect on KCl stimulation [2]: blocking effect is visible

Clc1cccc(Cl)c1N=C1NCCN1 [clonidine]
rank order of potency (agonists) [3]: naphazoline>octopamine>amitraz>clonidine>tolazoline

Cc1ccc(/N=C/N(C)/C=N/c2ccc(C)cc2C)c(C)c1 [amitraz]
rank order of potency (agonists) [3]: naphazoline>octopamine>amitraz>clonidine>tolazoline

CN(C)CCC=C1c2ccccc2CCc2ccccc21 [amitriptyline]
block of SK2 channel currents [1]: micro-molar affinity

COC(=O)C1=C(C)NC(C)=C(C(=O)OCCN(C)Cc2ccccc2)C1c1cccc([N+](=O)[O-])c1 (stereo not drawn) [nicardipine]
inhibition of KCl depolarization [4]: dose dependent inhibition

c1ccc2c(CC3=NCCN3)cccc2c1 [naphazoline]
rank order of potency (agonists) [3]: naphazoline>octopamine>amitraz>clonidine>tolazoline

O=C(NCC1CCCCN1)c1cc(OCC(F)(F)F)ccc1OCC(F)(F)F (stereo not drawn) [Flecainide]
inhibition of KCl depolarization [4]: did not show any inhibition

Nc1c2c(nc3ccccc13)CCCC2 [tacrine]
block of SK2 channel currents [1]: micro-molar affinity

C=C[C@H]1CN2CC[C@@H]1CC2[C@@H](O)c1ccnc2ccc(OC)cc12 (stereo in doubt) [quinidine, (2-ethenyl-4-azabicyclo[2.2.2]oct-5-yl)-(6-methoxyquinolin-4-yl)-methanol]
inhibition of KCl depolarization [4]: dose dependent inhibition

O=C(O)c1cccnc1Nc1cccc(C(F)(F)F)c1 [niflumic acid]
inhibition of KCl depolarization [4]: dose dependent inhibition

COC(=O)C1=C(C)NC(C)=C([N+](=O)[O-])C1c1ccccc1C(F)(F)F (stereo not drawn) [Bay K8644]
inhibition of KCl depolarization [4]: dose dependent inhibition

[Cl-].[K+] [KCl, reference compound]
EC50 ([5]; ShaI/KChIP 18-13 cells, isometrically-substituted KCl, fixed top response, read-out: EC50): 30 mM | EC50 ([5]; ShaI/KChIP 20 cells, three days, standard deviation 5 mM, read-out: EC50 mean): 36 mM | Activator concentration (~EC80) ([2]; in Activation buffer, high-throughput screening parameter): ~50 mM

Reference: patent US9029080B2, “Screening assay for insecticides” (priority 2008, dated 2015)
